In general, pIC50 refers to the negative decadic logarithm of the IC50, by convention in mol/L. In general, inhibition refers to the relative decrease from the control value, in per cent.

The values that follow come from ChEMBL document CHEMBL4020722, “Synthesis and evaluation of a series of pyridine and pyrimidine derivatives as type II c-Met inhibitors” (Bioorg Med Chem, 2017).

pIC50: −log10 of the molar value.

One assay has as its system EBC-1. The experiment in a line: cells. The following applies: Homo sapiens, EBC-1, 72 h.
A further assay has as its system HepG2. Briefly: cells. The following applies: Homo sapiens, HepG2, 72 h.
The target in assay [1] is Platelet-derived growth factor receptor alpha (Homo sapiens, UniProt P16234). The experiment in a line: Inhibition of PDGFRalpha (unknown origin) by HTRF method.
Assay [2] addresses T1, Hepatocyte growth factor receptor (Homo sapiens, UniProt P08581). Briefly: Inhibition of recombinant c-MET (unknown origin) using poly (Glu, Tyr) 4:1 as substrate after 45 mins by ELISA. A general note: ELISA stands for enzyme-linked immunosorbent assay.
In assay [3] the target is Mast/stem cell growth factor receptor Kit (Homo sapiens, UniProt P10721). Briefly: Inhibition of KIT (unknown origin) by HTRF method. Background: In TR-FRET formats the signal depends on donor and acceptor labels being close together.
The target in assay [4] is T1, Hepatocyte growth factor receptor. The following applies: 0.1 mM.
The target of assay [5] is T2, Receptor-type tyrosine-protein kinase FLT3 (Homo sapiens, UniProt P36888).
T2 sequence (P36888 whole entry): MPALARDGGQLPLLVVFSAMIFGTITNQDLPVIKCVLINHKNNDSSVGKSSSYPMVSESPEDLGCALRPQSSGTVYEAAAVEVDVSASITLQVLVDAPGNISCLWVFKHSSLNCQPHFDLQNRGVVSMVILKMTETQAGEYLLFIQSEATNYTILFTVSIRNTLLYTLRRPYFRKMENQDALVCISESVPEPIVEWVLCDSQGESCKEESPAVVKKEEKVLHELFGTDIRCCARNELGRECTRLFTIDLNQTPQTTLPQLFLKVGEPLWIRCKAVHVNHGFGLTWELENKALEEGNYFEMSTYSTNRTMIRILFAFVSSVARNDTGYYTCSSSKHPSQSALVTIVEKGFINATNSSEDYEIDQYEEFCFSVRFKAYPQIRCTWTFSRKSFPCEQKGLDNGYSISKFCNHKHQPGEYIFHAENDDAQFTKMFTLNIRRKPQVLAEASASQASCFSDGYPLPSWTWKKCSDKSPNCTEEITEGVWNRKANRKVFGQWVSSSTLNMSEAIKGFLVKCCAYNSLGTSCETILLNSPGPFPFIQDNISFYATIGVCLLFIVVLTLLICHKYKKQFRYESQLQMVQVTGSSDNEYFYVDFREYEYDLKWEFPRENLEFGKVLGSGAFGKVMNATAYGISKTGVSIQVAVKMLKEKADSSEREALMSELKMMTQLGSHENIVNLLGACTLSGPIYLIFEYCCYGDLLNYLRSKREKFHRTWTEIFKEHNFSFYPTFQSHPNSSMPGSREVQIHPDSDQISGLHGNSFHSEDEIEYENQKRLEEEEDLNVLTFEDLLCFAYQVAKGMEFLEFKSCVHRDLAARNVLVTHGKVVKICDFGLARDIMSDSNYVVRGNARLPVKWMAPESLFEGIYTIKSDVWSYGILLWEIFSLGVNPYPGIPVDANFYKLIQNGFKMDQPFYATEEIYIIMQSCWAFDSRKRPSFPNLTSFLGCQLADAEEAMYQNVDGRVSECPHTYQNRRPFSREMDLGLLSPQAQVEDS
Briefly: Inhibition of FLT3 (unknown origin) by HTRF method.

Assay [6] addresses Proto-oncogene tyrosine-protein kinase receptor Ret (Homo sapiens, UniProt P07949). The experiment in a line: Inhibition of RET (unknown origin) by HTRF method.
The target in assay [7] is Vascular endothelial growth factor receptor 2 (Homo sapiens, UniProt P35968).
The target in assay [8] is Epidermal growth factor receptor (Homo sapiens, UniProt P00533). The experiment in a line: Inhibition of EGFR (unknown origin) by HTRF method.

Platelet-derived growth factor receptor alpha, sequence (P16234 whole entry): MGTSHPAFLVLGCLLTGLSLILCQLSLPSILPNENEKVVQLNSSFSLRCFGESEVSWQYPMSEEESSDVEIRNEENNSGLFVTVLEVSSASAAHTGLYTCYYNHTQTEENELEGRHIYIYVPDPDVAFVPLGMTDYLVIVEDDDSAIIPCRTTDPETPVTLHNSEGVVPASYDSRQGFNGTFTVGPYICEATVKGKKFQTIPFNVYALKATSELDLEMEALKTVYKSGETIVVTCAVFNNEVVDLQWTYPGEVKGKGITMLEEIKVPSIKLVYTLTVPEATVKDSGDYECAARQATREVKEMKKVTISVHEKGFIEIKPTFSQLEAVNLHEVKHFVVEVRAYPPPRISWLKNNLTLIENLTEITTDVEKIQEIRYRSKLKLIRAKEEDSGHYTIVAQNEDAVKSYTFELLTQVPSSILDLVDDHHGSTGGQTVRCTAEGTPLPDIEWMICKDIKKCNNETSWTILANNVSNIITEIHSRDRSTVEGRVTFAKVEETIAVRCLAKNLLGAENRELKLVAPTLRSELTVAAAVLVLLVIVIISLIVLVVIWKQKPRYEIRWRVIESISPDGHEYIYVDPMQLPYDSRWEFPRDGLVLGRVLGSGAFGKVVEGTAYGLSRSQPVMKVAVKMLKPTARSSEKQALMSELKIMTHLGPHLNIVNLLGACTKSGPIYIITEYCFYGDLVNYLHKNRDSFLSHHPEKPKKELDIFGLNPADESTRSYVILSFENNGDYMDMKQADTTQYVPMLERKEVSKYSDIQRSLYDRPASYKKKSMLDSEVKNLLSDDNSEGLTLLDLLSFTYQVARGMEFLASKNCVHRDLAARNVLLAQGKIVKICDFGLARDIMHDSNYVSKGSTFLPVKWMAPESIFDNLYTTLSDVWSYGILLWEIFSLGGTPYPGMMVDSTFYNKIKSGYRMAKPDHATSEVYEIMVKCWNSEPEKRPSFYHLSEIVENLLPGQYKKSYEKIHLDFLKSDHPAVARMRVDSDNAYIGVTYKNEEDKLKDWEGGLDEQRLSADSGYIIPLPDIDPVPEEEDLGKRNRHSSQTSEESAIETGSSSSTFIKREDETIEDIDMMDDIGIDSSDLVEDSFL
T1 sequence (P08581 whole entry): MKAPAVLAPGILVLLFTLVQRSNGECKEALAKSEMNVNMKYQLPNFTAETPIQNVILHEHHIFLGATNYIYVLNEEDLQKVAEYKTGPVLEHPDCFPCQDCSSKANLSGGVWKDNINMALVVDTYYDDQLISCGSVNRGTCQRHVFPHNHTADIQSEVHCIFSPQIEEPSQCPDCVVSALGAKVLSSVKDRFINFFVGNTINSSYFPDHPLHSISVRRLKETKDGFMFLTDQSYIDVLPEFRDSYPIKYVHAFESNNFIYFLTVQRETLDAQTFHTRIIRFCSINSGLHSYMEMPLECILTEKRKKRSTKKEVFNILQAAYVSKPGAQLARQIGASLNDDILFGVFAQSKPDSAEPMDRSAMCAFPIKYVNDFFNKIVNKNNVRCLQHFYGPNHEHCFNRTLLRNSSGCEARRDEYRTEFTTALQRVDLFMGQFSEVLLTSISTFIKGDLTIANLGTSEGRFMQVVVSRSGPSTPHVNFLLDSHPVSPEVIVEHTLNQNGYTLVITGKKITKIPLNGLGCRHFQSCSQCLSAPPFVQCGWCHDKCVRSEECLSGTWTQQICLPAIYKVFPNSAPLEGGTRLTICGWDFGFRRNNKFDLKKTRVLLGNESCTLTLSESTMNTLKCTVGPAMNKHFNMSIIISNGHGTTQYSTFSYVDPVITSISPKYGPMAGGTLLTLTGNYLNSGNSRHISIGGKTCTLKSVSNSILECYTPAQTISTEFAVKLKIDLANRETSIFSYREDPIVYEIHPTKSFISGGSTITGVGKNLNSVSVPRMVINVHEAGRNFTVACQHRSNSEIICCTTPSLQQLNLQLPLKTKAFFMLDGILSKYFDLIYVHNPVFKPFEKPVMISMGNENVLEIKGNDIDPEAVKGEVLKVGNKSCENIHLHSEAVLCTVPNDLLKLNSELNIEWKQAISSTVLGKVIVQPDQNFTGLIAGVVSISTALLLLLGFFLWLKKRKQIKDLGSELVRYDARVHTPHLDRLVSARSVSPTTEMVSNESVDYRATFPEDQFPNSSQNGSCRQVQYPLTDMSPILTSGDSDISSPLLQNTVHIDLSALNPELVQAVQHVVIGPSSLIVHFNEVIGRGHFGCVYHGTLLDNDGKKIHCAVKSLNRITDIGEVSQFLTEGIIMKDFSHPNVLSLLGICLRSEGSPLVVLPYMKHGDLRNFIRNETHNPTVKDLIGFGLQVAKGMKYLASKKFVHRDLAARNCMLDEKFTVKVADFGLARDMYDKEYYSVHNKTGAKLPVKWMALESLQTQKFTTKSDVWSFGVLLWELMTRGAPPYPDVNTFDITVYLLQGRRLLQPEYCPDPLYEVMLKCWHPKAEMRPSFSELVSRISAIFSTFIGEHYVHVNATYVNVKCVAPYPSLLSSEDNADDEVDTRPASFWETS
Proto-oncogene tyrosine-protein kinase receptor Ret, sequence (P07949 whole entry): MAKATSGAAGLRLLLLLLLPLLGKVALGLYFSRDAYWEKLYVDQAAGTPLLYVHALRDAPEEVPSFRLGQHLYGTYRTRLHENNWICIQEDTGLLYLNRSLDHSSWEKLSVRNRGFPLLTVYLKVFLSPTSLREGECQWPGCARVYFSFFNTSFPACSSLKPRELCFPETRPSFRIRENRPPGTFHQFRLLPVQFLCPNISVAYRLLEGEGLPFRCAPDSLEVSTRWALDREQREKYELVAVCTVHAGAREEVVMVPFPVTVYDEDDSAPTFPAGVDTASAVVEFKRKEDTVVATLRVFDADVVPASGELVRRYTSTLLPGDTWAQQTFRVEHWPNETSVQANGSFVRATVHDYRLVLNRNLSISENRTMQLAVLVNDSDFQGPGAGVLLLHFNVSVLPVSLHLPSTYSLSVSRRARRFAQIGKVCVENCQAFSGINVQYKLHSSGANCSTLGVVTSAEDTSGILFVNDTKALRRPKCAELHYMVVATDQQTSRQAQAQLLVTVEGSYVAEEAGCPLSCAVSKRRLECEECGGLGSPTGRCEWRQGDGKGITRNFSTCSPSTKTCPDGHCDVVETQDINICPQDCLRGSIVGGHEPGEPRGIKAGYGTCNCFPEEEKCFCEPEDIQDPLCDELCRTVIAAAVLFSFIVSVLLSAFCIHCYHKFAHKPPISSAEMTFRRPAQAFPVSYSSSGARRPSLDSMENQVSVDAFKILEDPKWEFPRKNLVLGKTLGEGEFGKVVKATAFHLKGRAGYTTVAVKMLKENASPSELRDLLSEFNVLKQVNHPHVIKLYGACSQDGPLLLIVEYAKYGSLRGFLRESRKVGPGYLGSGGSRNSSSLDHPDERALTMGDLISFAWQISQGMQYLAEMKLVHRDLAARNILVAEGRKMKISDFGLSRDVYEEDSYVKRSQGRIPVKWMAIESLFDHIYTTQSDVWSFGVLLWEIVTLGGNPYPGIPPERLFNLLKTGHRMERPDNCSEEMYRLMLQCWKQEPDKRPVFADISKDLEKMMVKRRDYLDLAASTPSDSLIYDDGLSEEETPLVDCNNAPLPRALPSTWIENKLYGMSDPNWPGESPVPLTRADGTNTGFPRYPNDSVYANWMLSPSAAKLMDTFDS
Vascular endothelial growth factor receptor 2, sequence (P35968 whole entry): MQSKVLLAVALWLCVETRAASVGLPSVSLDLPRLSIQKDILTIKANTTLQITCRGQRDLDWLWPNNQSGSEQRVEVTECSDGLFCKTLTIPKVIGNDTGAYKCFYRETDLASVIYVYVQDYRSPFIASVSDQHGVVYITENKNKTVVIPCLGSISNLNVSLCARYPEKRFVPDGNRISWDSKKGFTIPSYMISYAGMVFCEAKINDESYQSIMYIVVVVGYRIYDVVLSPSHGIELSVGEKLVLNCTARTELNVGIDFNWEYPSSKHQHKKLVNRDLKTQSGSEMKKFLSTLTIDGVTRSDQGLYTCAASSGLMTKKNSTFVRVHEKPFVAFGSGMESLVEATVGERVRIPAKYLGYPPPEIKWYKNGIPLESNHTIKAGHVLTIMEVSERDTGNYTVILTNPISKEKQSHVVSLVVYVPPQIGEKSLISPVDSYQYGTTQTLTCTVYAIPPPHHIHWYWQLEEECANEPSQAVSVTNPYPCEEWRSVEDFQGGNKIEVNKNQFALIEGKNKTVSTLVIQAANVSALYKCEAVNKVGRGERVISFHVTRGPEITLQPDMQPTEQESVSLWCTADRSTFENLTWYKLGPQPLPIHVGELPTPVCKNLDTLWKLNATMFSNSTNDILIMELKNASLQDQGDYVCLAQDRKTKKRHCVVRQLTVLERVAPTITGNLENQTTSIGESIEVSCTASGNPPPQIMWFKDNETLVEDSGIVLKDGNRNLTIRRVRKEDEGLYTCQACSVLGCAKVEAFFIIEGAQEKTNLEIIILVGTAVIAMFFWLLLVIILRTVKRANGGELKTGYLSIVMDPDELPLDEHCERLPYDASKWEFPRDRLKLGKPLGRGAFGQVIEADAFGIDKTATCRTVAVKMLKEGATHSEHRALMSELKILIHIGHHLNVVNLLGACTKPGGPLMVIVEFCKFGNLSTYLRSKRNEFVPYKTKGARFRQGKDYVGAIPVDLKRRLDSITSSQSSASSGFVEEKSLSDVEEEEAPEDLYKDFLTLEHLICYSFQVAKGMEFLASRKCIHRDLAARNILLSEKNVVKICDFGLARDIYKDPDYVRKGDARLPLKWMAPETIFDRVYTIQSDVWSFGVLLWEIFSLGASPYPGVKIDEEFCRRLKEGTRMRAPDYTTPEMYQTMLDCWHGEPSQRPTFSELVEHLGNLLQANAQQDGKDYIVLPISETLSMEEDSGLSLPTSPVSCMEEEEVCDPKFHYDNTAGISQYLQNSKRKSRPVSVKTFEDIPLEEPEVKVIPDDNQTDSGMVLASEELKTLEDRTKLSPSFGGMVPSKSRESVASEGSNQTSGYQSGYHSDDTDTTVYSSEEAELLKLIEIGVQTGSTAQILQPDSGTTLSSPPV

As for `Nc1cc(Oc2ccc(NC(=O)C3(C(=O)Nc4ccc(Cl)cc4)CC3)cc2F)ncn1`, the pIC50 in the assay on EBC-1 and in the assay with HepG2 was under 6.00 throughout.
With `COc1cc2nccc(Oc3ccc(NC(=O)C4(C(=O)Nc5ccc(F)cc5)CC4)cc3)c2cc1OC` [CABOZANTINIB], the pIC50 in assay [1] is under 5.00.
For the molecule `Nc1nccc(Oc2ccc(NC(=O)C3(C(=O)Nc4cccc(F)c4)CC3)cc2F)c1Cl`, the pIC50 with EBC-1 and in the assay on HepG2 was under 6.00 each time.
For the molecule `Nc1nccc(Oc2ccc(NC(=O)C3(C(=O)Nc4ccc(F)cc4)CC3)cc2F)c1Cl`, the negative-log IC50 (pIC50) is 6.89 in the assay on EBC-1; 7.77 in assay [2]; 6.55 in assay [3]; under 6.00 in the assay with HepG2; 5.65 in assay [5]; 6.41 in [6]. Moreover, the pIC50 in [7] was 7.26; in assay [1] it was 6.76; in assay [8], under 6.00. The inhibition in assay [4] turned out to be 100%.
In the case of `COc1cccc2c1C(=O)c1c(O)c3c(c(O)c1C2=O)C[C@@](O)(C(=O)CO)C[C@@H]3O[C@H]1C[C@H](N)[C@H](O)[C@H](C)O1` [DOXORUBICIN], the pIC50 with EBC-1 is 6.52; with HepG2 it was 7.01.
`Nc1nccc(Oc2ccc(NC(=O)C3(C(=O)Nc4ccc(Cl)cc4)CC3)cc2F)c1Cl`: the pIC50 with EBC-1 was 6.01; in the assay with HepG2 it was under 6.00.
As for `COc1ccc(NC(=O)C2(C(=O)Nc3ccc(Oc4cc(N)ncn4)c(F)c3)CC2)cc1`, the pIC50 in assay [2] is under 5.00.
In the case of `Nc1nccc(Oc2ccc(NC(=O)C3(C(=O)Nc4ccc(F)cc4)CC3)cc2F)n1`, the pIC50 in the assay on EBC-1 and with HepG2 was under 6.00 each time.
Regarding `Nc1cc(Oc2ccc(NC(=O)C3(C(=O)NCc4ccc(F)cc4)CC3)cc2F)ncn1`, the pIC50 in [2] was under 5.00.
In the case of `Nc1cc(Oc2ccc(NC(=O)C3(C(=O)Nc4ccc(F)cc4)CC3)cc2F)ncn1`, the pIC50 in the assay on EBC-1 and with HepG2 was under 6.00 in each case.
Regarding `Nc1nccc(Oc2ccc(NC(=O)C3(C(=O)NCc4ccc(F)cc4)CC3)cc2F)n1`, in [2], the pIC50 was under 5.00.
On to `CCOc1ccn(-c2ccc(F)cc2)c(=O)c1C(=O)Nc1ccc(Oc2ccnc(N)c2Cl)c(F)c1` [BMS-777607], for which the pIC50 in the assay with EBC-1 is 6.79; in assay [2], 7.92; in assay [1] it was 7.55.
